The text below walks through data of PubChem BioAssay AID256 (DTP/NCI, 2004).

For the experiment, the system named is CD2F1 mice, L1210 leukemia ip, survival T/C. The experiment can be described thus: NCI In Vivo Anticancer Drug Screen. Data for tumor model L1210 Leukemia (intraperitoneal) in CD2F1 (CDF1) mice. The conditions noted are these: higher = longer survival. The essentials:
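Mice carrying a transplanted tumor received test compound or vehicle alone. The value is the measurement in the treated group divided by that in the vehicle-treated control group.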

[1] abbreviates: endpoint: mean survival time, dose: 50.0 mg/kg/injection, schedule: Q01DX009 (ip), vehicle: other.

Where “and” joins values, the source holds several entries; their conditions need not be identical. Identical values can stand only once. Toxic doses and inconclusive results are not listed.

As for `COc1ccc2ccccc2c1C1/C(=N/O)CCc2ccccc21` (configuration not stated), the T/C (endpoint: mean survival time, dose: 12.5 mg/kg/injection, schedule: Q01DX009 (ip), vehicle: other) is 98 % of control; the T/C (endpoint: mean survival time, dose: 25.0 mg/kg/injection, schedule: Q01DX009 (ip), vehicle: other) was 94 % of control; the T/C under setting [1] was 98 % of control; the T/C (endpoint: mean survival time, dose: 100.0 mg/kg/injection, schedule: Q01DX009 (ip), vehicle: other) is 98 % of control; the T/C (endpoint: mean survival time, dose: 200.0 mg/kg/injection, schedule: Q01DX009 (ip), vehicle: other) was 96 % of control.
Regarding `CCCCOC(=O)c1cc([N+](=O)[O-])cc([N+](=O)[O-])c1Sc1ncnc2nc[nH]c12`, the T/C was 108 % of control (endpoint: mean survival time, dose: 0.63 mg/kg/injection, schedule: Q01DX005 (ip), vehicle: other); 95 % of control (endpoint: mean survival time, dose: 1.25 mg/kg/injection, schedule: Q01DX005 (ip), vehicle: other); 110 % of control (endpoint: mean survival time, dose: 2.5 mg/kg/injection, schedule: Q01DX005 (ip), vehicle: other); 113 % of control (endpoint: mean survival time, dose: 5.0 mg/kg/injection, schedule: Q01DX005 (ip), vehicle: other); 98 % of control (endpoint: mean survival time, dose: 9.4 mg/kg/injection, schedule: Q01DX005 (ip), vehicle: other); 115 % of control (endpoint: mean survival time, dose: 10.0 mg/kg/injection, schedule: Q01DX005 (ip), vehicle: other). Moreover, the T/C is, setting by setting: (endpoint: mean survival time, dose: 18.8 mg/kg/injection, schedule: Q01DX005 (ip), vehicle: other) 103 % of control; (endpoint: mean survival time, dose: 37.5 mg/kg/injection, schedule: Q01DX005 (ip), vehicle: other) 109 % of control; (endpoint: mean survival time, dose: 75.0 mg/kg/injection, schedule: Q01DX005 (ip), vehicle: other) 113 % of control.
For the compound `c1cc[n+]2c(c1)-c1cccc[n+]1CCCC2`, the T/C runs as follows: (endpoint: mean survival time, dose: 75.0 mg/kg/injection, schedule: Q01DX009 (ip), vehicle: saline) 108 % of control; (endpoint: mean survival time, dose: 75.0 mg/kg/injection, schedule: Q04DX003 (ip), vehicle: saline) 98 % of control; (endpoint: mean survival time, dose: 150.0 mg/kg/injection, schedule: Q01DX009 (ip), vehicle: saline) 100 % of control; (endpoint: mean survival time, dose: 150.0 mg/kg/injection, schedule: Q04DX003 (ip), vehicle: saline) 93 % of control; (endpoint: mean survival time, dose: 300.0 mg/kg/injection, schedule: Q04DX003 (ip), vehicle: saline) 96 % of control.
As for `CC(C)[NH-].CC(C)[NH-].[Cl][Pt+2][Cl]`, the T/C reads like this: (endpoint: mean survival time, dose: 1.56 mg/kg/injection, schedule: Q01DX009 (ip), vehicle: dextrose) 119 % of control; (endpoint: mean survival time, dose: 1.56 mg/kg/injection, schedule: Q01DX009 (ip), vehicle: other) 112 % of control; (endpoint: mean survival time, dose: 3.12 mg/kg/injection, schedule: Q01DX009 (ip), vehicle: other) 118 % of control; (endpoint: mean survival time, dose: 3.13 mg/kg/injection, schedule: Q04DX003 (ip), vehicle: distilled water + Tween-80) 112 % of control; (endpoint: mean survival time, dose: 6.25 mg/kg/injection, schedule: Q01DX009 (ip), vehicle: dextrose) 100 % of control; (endpoint: mean survival time, dose: 6.25 mg/kg/injection, schedule: Q04DX003 (ip), vehicle: distilled water + Tween-80) 115 % of control. Also, the T/C is, setting by setting: (endpoint: mean survival time, dose: 12.5 mg/kg/injection, schedule: Q01DX009 (ip), vehicle: dextrose) 98 % of control and 112 % of control; under setting [1], 88 % of control; (endpoint: mean survival time, dose: 50.0 mg/kg/injection, schedule: Q04DX003 (ip), vehicle: distilled water + Tween-80) 118 % of control.
As to `CN(N=O)C(=O)NC1C(CO)OC2OC(C)(C)OC21` (configuration not stated), the T/C is 94 % of control (endpoint: mean survival time, dose: 100.0 mg/kg/injection, schedule: Q04DX003 (ip), vehicle: saline sonified); 151 % of control (endpoint: mean survival time, dose: 132.0 mg/kg/injection, schedule: Q01DX009 (ip), vehicle: saline); 198 % of control (endpoint: mean survival time, dose: 200.0 mg/kg/injection, schedule: Q01DX009 (ip), vehicle: saline); 100 % of control (endpoint: mean survival time, dose: 200.0 mg/kg/injection, schedule: Q04DX003 (ip), vehicle: saline sonified); 105 % of control (endpoint: mean survival time, dose: 300.0 mg/kg/injection, schedule: Q01DX009 (ip), vehicle: saline); 107 % of control (endpoint: mean survival time, dose: 400.0 mg/kg/injection, schedule: Q04DX003 (ip), vehicle: saline sonified).
As for `CC1(C)C/C(=C\c2cc(O)ccc2[N+](=O)[O-])C(=O)c2ccccc21`, the T/C is 97 % of control (endpoint: mean survival time, dose: 100.0 mg/kg/injection, schedule: Q01DX009 (ip), vehicle: saline with Tween-80); 101 % of control (endpoint: mean survival time, dose: 100.0 mg/kg/injection, schedule: Q04DX003 (ip), vehicle: saline with Tween-80); 94 % of control (endpoint: mean survival time, dose: 200.0 mg/kg/injection, schedule: Q01DX009 (ip), vehicle: saline with Tween-80); 106 % of control (endpoint: mean survival time, dose: 200.0 mg/kg/injection, schedule: Q04DX003 (ip), vehicle: saline with Tween-80); 97 % of control (endpoint: mean survival time, dose: 400.0 mg/kg/injection, schedule: Q01DX009 (ip), vehicle: saline with Tween-80); 103 % of control (endpoint: mean survival time, dose: 400.0 mg/kg/injection, schedule: Q04DX003 (ip), vehicle: saline with Tween-80).
For `CC(C)N(C=C(C#N)C#N)C(C)C`, the T/C is, setting by setting: (endpoint: mean survival time, dose: 12.5 mg/kg/injection, schedule: Q01DX009 (ip), vehicle: saline with Tween-80) 91 % of control; (endpoint: mean survival time, dose: 25.0 mg/kg/injection, schedule: Q01DX001 (ip), vehicle: saline with Tween-80) 103 % of control; (endpoint: mean survival time, dose: 25.0 mg/kg/injection, schedule: Q01DX009 (ip), vehicle: saline with Tween-80) 96 % of control; (endpoint: mean survival time, dose: 50.0 mg/kg/injection, schedule: Q01DX001 (ip), vehicle: saline with Tween-80) 107 % of control; (endpoint: mean survival time, dose: 100.0 mg/kg/injection, schedule: Q01DX001 (ip), vehicle: saline with Tween-80) 98 % of control.
Consider `CN1C(=O)C(C)(C)C(=O)C1(C)C`, for which the T/C is, setting by setting: (endpoint: mean survival time, dose: 25.0 mg/kg/injection, schedule: Q01DX001 (ip), vehicle: saline) 103 % of control; (endpoint: mean survival time, dose: 50.0 mg/kg/injection, schedule: Q01DX001 (ip), vehicle: saline) 104 % of control; (endpoint: mean survival time, dose: 100.0 mg/kg/injection, schedule: Q01DX001 (ip), vehicle: saline) 103 % of control.
For the compound `CC(C)CC(NC(=O)CF)C(=O)O` (configuration not stated), the T/C is 98 % of control and 108 % of control (endpoint: mean survival time, dose: 0.31 mg/kg/injection, schedule: Q01DX009 (ip), vehicle: saline); 98 % of control (endpoint: mean survival time, dose: 0.62 mg/kg/injection, schedule: Q01DX009 (ip), vehicle: saline); 111 % of control (endpoint: mean survival time, dose: 0.63 mg/kg/injection, schedule: Q01DX009 (ip), vehicle: saline); 98 % of control and 106 % of control (endpoint: mean survival time, dose: 1.25 mg/kg/injection, schedule: Q01DX009 (ip), vehicle: saline); 98 % of control and 100 % of control (endpoint: mean survival time, dose: 2.5 mg/kg/injection, schedule: Q01DX009 (ip), vehicle: saline); 98 % of control and 110 % of control (endpoint: mean survival time, dose: 5.0 mg/kg/injection, schedule: Q01DX009 (ip), vehicle: saline).
With `CN(Cc1ccccc1)/N=N/c1nc[nH]c1C(N)=O`, the T/C (endpoint: mean survival time, dose: 4.0 mg/kg/injection, schedule: Q01DX009 (ip), vehicle: Klucel (hydroxypropylcellulose) (HPC)) is 98 % of control; the T/C (endpoint: mean survival time, dose: 8.0 mg/kg/injection, schedule: Q01DX009 (ip), vehicle: Klucel (hydroxypropylcellulose) (HPC)) is 98 % of control; the T/C (endpoint: mean survival time, dose: 16.1 mg/kg/injection, schedule: Q01DX009 (ip), vehicle: Klucel (hydroxypropylcellulose) (HPC)) was 102 % of control; the T/C (endpoint: mean survival time, dose: 32.2 mg/kg/injection, schedule: Q01DX009 (ip), vehicle: Klucel (hydroxypropylcellulose) (HPC)) was 106 % of control; the T/C (endpoint: mean survival time, dose: 129.0 mg/kg/injection, schedule: Q01DX009 (ip), vehicle: Klucel (hydroxypropylcellulose) (HPC)) was 95 % of control; the T/C (endpoint: mean survival time, dose: 258.0 mg/kg/injection, schedule: Q01DX009 (ip), vehicle: Klucel (hydroxypropylcellulose) (HPC)) is 70 % of control. In addition, the T/C runs as follows: (endpoint: median survival time, dose: 8.0 mg/kg/injection, schedule: Q03HX016 (ip), vehicle: saline with Tween-80) 106 % of control; (endpoint: median survival time, dose: 8.0 mg/kg/injection, schedule: Q03HX024 (ip), vehicle: saline with Tween-80) 115 % of control; (endpoint: median survival time, dose: 16.0 mg/kg/injection, schedule: Q03HX016 (ip), vehicle: saline with Tween-80) 112 % of control; (endpoint: median survival time, dose: 16.0 mg/kg/injection, schedule: Q03HX024 (ip), vehicle: saline with Tween-80) 124 % of control; (endpoint: median survival time, dose: 32.0 mg/kg/injection, schedule: Q03HX016 (ip), vehicle: saline with Tween-80) 123 % of control; (endpoint: median survival time, dose: 64.0 mg/kg/injection, schedule: Q04DX003 (ip), vehicle: saline with Tween-80) 116 % of control. Moreover, the T/C is, setting by setting: (endpoint: median survival time, dose: 64.0 mg/kg/injection, schedule: Q08DX002 (ip), vehicle: saline with Tween-80) 105 % of control; (endpoint: median survival time, dose: 128.0 mg/kg/injection, schedule: Q04DX003 (ip), vehicle: saline with Tween-80) 123 % of control; (endpoint: median survival time, dose: 128.0 mg/kg/injection, schedule: Q08DX002 (ip), vehicle: saline with Tween-80) 112 % of control; (endpoint: median survival time, dose: 256.0 mg/kg/injection, schedule: Q01DX009 (ip), vehicle: saline with Tween-80) 120 % of control; (endpoint: median survival time, dose: 256.0 mg/kg/injection, schedule: Q08DX002 (ip), vehicle: saline with Tween-80) 112 % of control; (endpoint: median survival time, dose: 512.0 mg/kg/injection, schedule: Q08DX002 (ip), vehicle: saline with Tween-80) 156 % of control.
